Source: ChEMBL document CHEMBL3352525, “RET Kinase Inhibitors May Treat Cancer and Gastrointestinal Disorders” (ACS Med Chem Lett, 2015)

Columns and labels:
[1] = biological target: T1, Proto-oncogene tyrosine-protein kinase receptor Ret (Homo sapiens, UniProt P07949); experiment: Inhibition of human RET kinase in TT cells by TRET Kinase cell-based mechanistic assay
[2] = biological target: T1, Proto-oncogene tyrosine-protein kinase receptor Ret; experiment: Inhibition of human RET kinase cytoplasmic domain by Time-Resolved fluorescence reader assay

T1 sequence (P07949 whole entry, the tested form may be a part): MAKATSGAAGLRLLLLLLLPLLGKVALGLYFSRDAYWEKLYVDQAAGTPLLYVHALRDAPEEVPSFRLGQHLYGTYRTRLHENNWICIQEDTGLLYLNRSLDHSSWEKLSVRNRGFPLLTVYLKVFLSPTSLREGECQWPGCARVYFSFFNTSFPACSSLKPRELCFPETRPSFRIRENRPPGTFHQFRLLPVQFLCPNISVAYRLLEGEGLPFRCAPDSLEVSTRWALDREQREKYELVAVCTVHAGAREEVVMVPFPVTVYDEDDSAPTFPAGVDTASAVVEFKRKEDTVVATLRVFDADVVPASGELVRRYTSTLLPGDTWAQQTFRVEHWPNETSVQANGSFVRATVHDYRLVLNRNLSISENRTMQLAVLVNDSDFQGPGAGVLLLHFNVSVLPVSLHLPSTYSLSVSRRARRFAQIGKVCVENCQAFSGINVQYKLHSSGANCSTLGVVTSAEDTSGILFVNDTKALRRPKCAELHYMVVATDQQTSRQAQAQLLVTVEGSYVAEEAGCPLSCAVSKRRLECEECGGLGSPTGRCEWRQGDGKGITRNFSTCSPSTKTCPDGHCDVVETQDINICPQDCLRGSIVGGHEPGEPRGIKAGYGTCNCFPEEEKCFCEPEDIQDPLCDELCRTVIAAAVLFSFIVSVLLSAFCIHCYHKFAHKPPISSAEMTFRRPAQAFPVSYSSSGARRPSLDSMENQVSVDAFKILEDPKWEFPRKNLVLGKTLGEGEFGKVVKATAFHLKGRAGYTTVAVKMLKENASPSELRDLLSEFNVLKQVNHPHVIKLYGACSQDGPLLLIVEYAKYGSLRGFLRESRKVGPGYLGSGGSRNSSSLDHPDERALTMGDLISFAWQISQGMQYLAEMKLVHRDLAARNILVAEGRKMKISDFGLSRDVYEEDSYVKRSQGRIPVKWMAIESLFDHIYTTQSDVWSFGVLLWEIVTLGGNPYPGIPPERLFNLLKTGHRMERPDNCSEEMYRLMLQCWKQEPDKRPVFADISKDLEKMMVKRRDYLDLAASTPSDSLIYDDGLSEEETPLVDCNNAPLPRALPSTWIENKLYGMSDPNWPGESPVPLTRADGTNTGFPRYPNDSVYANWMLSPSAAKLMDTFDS

IC50 [1]: > 500 nM
IC50 [2]: ≥ 100 nM
SMILES: CCOc1cc(-c2ccc(CC(=O)Nc3ccc(Cl)c(Cl)c3)c(F)c2)c[nH]c1=O
